Measured values: patent publication US20120328526A1, “Modulation of Nad+ Activity in Neuropathophysiological Conditions and Uses Thereof” (University of Maryland, Baltimore, priority 2011, published 2012)
Entries after “also recorded” stand apart in the source; their conditions may differ.

Tests used:
[1] = system: traumatic brain injury mice; test: Open field test (anti-clockwise/clockwise rotations) after traumatic brain injury; type: in vivo, mouse; conditions: NMN 500 mg/kg I.P. at 1 hour post-injury; 7 days post-injury; listed as NMN
Procedure: FIGS. 9A-9B show traumatic brain injury-induced deficits in sensorimotor function and cognition are ameliorated by nicotinamide mononucleotide treatment. FIG. 9A: Fine motor coordination deficits were quantified using a beam walk test in C57Bl/6 mice subjected to moderate-level traumatic brain injury and treated with nicotinamide mononucleotide (500 mg/kg, I.P.) or equal volume of vehicle at 1 hour post-injury. Hindlimb foot placement was recorded up to 7 days post-injury and the number of foot faults recorded from 50 steps. Naïve C57Bl/6 mice served as a control group. […] Analysis was by repeated measures one-way ANOVA, followed by post-hoc adjustments using Student-Newman-Keuls test. Mean ±S.E.M.; n=5/group. FIG. 9B: Cognitive performance was analyzed by measuring the number of anti-clockwise and clockwise rotations of traumatic brain injury mice in an open field test performed at 7 days post-injury.
The effect of nicotinamide mononucleotide on traumatic brain injury-induced changes in fine motor coordination examined using a beam walking task in which mice were trained to cross an elevated narrow wooden beam. The mouse was placed on the left end of the beam and the number of foot faults for the right hind limb was recorded over 50 steps on the beam. […] Their activity was measured and recorded using the Any-maze video tracking system. […]

CD38-deficient cells = test: Oxygen-glucose deprivation (OGD) in CD38-deficient cell cultures; type: cell-based, mouse
Text: At later recovery periods, tissue NAD(H) decrease since the NAD^+ translocates from mitochondria to the cytosol and is hydrolyzed by the activated NAD^+ glycohydrolases CD38 and PARP1. CD38-dependent overactivation of microglia under diabetic conditions leads to aggravation of ischemic brain damage, astrocytes and neurons prepared from CD38 knockout animals with microglia (9) from wild type or CD38-null animals are co-cultured. The co-cultures are then subjected to OGD and the cell death assessed at 24 h of recovery.
Exposure of cortical astrocytes to OGD plus ISS for 4 h results in significant (>50%) cell death after 24 h of reoxygenation (24) was determined. When cortical neurons are subjected to the same insult for 1 h, a similar level of cell death (40-50%) was observed. Cells cultured under hyperglycemic conditions (30 mM glucose) are more sensitive to the oxygen-glucose deprivation (OGD) insult. The CD38-deficient cells will have elevated basal levels of NAD(H) since the brain NAD(H) levels in CD38-null mice are several-fold higher when compared to wild type mice (6). The protective effect of CD38 knockout in specific cell types will also depend on the oxygen-glucose deprivation-induced loss of mitochondrial NAD(H) that can promote total cellular NAD(H) depletion. […]

CD38 = target: T1, CD38 (Mus musculus, UniProt P56528); test: 1-etheno-NAD hydrolysis by isolated brain mitochondria; type: biochemical; conditions: NMN 1 mM
T1 construct: Addition of isolated brain mitochondria into medium containing 1-etheno-NAD (eNAD) results in generation of fluorescent product; from tissue; host or cells: isolated brain mitochondria
T1 sequence (P56528 1-304): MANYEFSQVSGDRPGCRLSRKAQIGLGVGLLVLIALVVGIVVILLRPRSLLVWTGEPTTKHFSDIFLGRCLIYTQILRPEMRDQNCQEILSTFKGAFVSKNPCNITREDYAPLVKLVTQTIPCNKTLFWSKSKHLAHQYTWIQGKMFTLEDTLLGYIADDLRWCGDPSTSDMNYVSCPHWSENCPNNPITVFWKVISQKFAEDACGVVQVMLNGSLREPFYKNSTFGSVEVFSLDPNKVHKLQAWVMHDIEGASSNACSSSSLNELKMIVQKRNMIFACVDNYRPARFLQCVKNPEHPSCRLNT
Procedure: Addition of isolated brain mitochondria into medium containing 1-etheno-NAD (eNAD) results in generation of fluorescent product. This NAD catabolism is inhibited by nicotinamide mononucleotide (1 mM). […] In brain tissue of sham-operated animals the CD38 expression is very low. […] This increase is observed particularly in non-neuronal cells that resemble post-ischemic microglia.

With `NC(=O)c1ccc[n+]([C@@H]2O[C@H](COP(=O)([O-])O)[C@@H](O)[C@H]2O)c1` [nicotinamide mononucleotide] the “cognitive performance: anti-clockwise rotations in open field test” value [1] was “virtually indistinguishable from the naïve mice; also recorded: reduced anti-clockwise rotations”, the “protective effect in CD38-deficient cells compared to PARP-1 inhibitors 3-AB or PJ34” value (CD38-deficient cells) was “less efficient protective effect” and the “NAD catabolism (eNAD fluorescent product) by isolated brain mitochondria” value (CD38) was “inhibited”.
